The source made the active and inactive calls. The rule behind the calls is not given here.
How the values were obtained:
[1] = molecular target: GABA transporter (Rattus norvegicus) (UniProt P31647+P23978+P31646+P48056); assay: Inhibition of Transporter, GABA at 10.0 µM in the Eurofins-Panlabs selectivity screen; format: protein assay; details: Compound concentration 10.0 uM
[2] = molecular target: Disintegrin and metalloproteinase domain-containing protein 10 (Homo sapiens, UniProt O14672); assay: IC50 of hADAM10 at 1.0 µM in the Bayer in-house protease panel
[3] = molecular target: Prostaglandin G/H synthase 1 (Homo sapiens) (UniProt P23219); assay: Inhibition of Cyclooxygenase COX-1 at 10.0 µM in the Eurofins-Panlabs selectivity screen; details: Compound concentration 10.0 uM
Prostaglandin G/H synthase 1 (Homo sapiens), sequence (P23219 whole entry): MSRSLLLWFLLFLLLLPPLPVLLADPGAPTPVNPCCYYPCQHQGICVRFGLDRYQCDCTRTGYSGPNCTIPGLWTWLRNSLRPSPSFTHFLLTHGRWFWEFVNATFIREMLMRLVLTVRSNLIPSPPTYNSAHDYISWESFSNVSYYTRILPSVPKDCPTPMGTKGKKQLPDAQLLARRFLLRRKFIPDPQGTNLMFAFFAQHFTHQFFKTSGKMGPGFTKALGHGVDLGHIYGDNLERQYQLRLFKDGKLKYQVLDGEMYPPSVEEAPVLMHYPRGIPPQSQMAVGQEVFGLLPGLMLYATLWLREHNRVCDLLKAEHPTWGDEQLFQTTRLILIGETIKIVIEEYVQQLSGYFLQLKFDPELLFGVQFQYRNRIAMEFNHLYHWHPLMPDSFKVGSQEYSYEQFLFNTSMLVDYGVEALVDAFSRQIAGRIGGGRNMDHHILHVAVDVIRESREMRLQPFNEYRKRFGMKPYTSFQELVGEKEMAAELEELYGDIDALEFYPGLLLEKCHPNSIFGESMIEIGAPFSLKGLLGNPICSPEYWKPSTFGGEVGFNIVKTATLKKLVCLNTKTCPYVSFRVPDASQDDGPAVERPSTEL

[4] = molecular target: cGMP-specific 3',5'-cyclic phosphodiesterase (Homo sapiens) (UniProt O76074); assay: Inhibition of Phosphodiesterase PDE5 at 10.0 µM in the Eurofins-Panlabs selectivity screen; details: Compound concentration 10.0 uM
[5] = molecular target: Purinergic P2Y (Rattus norvegicus) (UniProt O35811+Q9EPX4+P49651+Q63371+P41232+O35881+Q6GUG4); assay: Inhibition of Purinergic P2Y at 10.0 µM in the Eurofins-Panlabs selectivity screen; format: protein assay; details: Compound concentration 10.0 uM
[6] = molecular target: 5-hydroxytryptamine receptor 2B (Homo sapiens) (UniProt P41595); assay: Inhibition of Serotonin (5-Hydroxytryptamine) 5-HT2B at 10.0 µM in the Eurofins-Panlabs selectivity screen; details: Compound concentration 10.0 uM
[7] = molecular target: Glutamate receptor ionotropic, kainate (Rattus norvegicus) (UniProt P22756+Q01812+P42260+P42264+Q63273); assay: Inhibition of Glutamate, Kainate at 10.0 µM in the Eurofins-Panlabs selectivity screen; format: protein-complex assay; details: Compound concentration 10.0 uM
[8] = molecular target: A disintegrin and metalloproteinase with thrombospondin motifs 12 (Homo sapiens, UniProt P58397); assay: Biochemical enzymatic FRET assay (hADAMTS12) ( FRET substrate, HiLyteFluor-488 DELSSMVLELRGLRT-K(QXL520)-E-NH2 (custom synthesis by Anaspec) was used.)
[9] = molecular target: Nitric oxide synthase 1 (Homo sapiens) (UniProt P29475); assay: Inhibition of Nitric Oxide Synthase, Neuronal (nNOS) at 10.0 µM in the Eurofins-Panlabs selectivity screen; details: Rattus norvegicus; Compound concentration 10.0 uM
[10] = molecular target: 5-hydroxytryptamine receptor 2C (Homo sapiens) (UniProt P28335); assay: Inhibition of Serotonin (5-Hydroxytryptamine) 5-HT2C at 10.0 µM in the Eurofins-Panlabs selectivity screen; details: Compound concentration 10.0 uM
5-hydroxytryptamine receptor 2C (Homo sapiens), sequence (P28335 whole entry): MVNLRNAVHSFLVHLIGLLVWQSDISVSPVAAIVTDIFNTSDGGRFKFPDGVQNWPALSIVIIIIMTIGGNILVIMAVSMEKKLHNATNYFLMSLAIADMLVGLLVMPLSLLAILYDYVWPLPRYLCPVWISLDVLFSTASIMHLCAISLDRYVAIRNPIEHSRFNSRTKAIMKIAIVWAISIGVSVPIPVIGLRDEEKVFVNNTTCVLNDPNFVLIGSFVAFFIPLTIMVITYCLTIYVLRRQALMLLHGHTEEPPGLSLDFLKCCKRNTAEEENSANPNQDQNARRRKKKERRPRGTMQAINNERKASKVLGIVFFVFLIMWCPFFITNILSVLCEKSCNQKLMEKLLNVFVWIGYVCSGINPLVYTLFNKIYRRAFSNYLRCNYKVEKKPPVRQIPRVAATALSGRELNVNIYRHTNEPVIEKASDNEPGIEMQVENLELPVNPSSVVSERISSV

[11] = molecular target: A disintegrin and metalloproteinase with thrombospondin motifs 7 (Homo sapiens, UniProt Q9UKP4); assay: Biochemical enzymatic FRET assay (hADAMTS7) ( FRET substrate, HiLyteFluor-488 DELSSMVLELRGLRT-K(QXL520)-E-NH2 (custom synthesis by Anaspec) was used.)
[12] = molecular target: Disintegrin and metalloproteinase domain-containing protein 8 (Homo sapiens, UniProt P78325); assay: IC50 of hADAM8 at 1.0 µM in the Bayer in-house protease panel
[13] = molecular target: Beta-1 adrenergic receptor (Homo sapiens) (UniProt P08588); assay: Inhibition of Adrenergic beta1 at 10.0 µM in the Eurofins-Panlabs selectivity screen; details: Compound concentration 10.0 uM
Caspase-3 = Caspase-3 (Homo sapiens, UniProt P42574); assay: IC50 of Caspase 3 at 1.0 µM in the Bayer in-house protease panel
Caspase-3, sequence (P42574 29-175 limits assumed): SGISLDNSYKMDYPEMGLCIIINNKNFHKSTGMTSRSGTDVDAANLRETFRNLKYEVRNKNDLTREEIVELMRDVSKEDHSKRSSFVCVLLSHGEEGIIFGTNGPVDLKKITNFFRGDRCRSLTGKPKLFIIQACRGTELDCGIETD
Caspase-3, sequence (P42574 176-277 limits assumed): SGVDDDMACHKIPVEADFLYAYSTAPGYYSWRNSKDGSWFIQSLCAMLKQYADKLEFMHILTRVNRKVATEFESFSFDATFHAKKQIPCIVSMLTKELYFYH

[14] = molecular target: Monoamine oxidase B (MAO-B) (Homo sapiens, UniProt P27338); assay: Inhibition of Monoamine Oxidase MAO-B at 10.0 µM in the Eurofins-Panlabs selectivity screen; details: compound concentration 10 uM
[15] = molecular target: Glucocorticoid receptor (Homo sapiens) (UniProt P04150); assay: Inhibition of Glucocorticoid at 10.0 µM in the Eurofins-Panlabs selectivity screen; details: Compound concentration 10.0 uM
Glucocorticoid receptor (Homo sapiens), sequence (P04150 whole entry): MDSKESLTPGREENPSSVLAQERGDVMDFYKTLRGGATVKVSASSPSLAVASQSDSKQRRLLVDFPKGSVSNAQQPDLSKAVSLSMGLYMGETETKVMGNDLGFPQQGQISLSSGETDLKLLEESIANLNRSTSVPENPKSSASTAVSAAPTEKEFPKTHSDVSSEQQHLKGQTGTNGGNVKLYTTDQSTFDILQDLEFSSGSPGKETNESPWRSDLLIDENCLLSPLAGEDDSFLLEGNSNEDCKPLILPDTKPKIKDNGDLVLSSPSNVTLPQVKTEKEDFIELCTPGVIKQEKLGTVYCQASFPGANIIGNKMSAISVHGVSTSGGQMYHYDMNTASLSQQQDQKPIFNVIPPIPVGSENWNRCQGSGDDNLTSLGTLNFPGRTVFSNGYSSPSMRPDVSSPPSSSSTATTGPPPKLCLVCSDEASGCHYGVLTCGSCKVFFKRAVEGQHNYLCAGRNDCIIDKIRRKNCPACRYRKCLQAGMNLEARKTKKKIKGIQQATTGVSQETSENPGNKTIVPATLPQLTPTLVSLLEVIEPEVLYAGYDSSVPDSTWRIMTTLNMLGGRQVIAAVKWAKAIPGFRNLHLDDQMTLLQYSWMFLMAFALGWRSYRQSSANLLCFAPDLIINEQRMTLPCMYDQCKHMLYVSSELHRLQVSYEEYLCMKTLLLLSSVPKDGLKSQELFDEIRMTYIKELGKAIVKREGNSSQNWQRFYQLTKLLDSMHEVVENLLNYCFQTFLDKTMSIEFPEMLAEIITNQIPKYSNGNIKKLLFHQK

[16] = molecular target: Endothelin-1 receptor (Homo sapiens) (UniProt P25101); assay: Inhibition of Endothelin ETA at 10.0 µM in the Eurofins-Panlabs selectivity screen; details: Compound concentration 10.0 uM
[17] = molecular target: Alpha-2B adrenergic receptor (Homo sapiens) (UniProt P18089); assay: Inhibition of Adrenergic alpha2B at 10.0 µM in the Eurofins-Panlabs selectivity screen; details: Compound concentration 10.0 uM
[18] = molecular target: Beta-2 adrenergic receptor (Homo sapiens) (UniProt P07550); assay: Inhibition of Adrenergic beta2 at 10.0 µM in the Eurofins-Panlabs selectivity screen; details: Compound concentration 10.0 uM
Beta-2 adrenergic receptor (Homo sapiens), sequence (P07550 whole entry, looked up): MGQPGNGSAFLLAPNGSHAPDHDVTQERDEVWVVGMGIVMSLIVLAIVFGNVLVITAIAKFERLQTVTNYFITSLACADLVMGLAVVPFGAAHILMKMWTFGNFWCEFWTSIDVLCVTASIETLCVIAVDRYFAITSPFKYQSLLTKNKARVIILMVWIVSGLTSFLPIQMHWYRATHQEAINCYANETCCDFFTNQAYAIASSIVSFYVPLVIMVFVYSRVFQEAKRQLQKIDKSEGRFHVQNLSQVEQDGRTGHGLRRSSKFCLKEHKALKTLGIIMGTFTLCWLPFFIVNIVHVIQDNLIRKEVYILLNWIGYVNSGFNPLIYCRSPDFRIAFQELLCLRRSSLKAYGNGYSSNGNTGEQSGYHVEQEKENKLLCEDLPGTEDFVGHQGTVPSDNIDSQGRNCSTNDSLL

GABA transporter (Rattus norvegicus), sequence (P31646 whole entry, looked up, the tested form may be a part): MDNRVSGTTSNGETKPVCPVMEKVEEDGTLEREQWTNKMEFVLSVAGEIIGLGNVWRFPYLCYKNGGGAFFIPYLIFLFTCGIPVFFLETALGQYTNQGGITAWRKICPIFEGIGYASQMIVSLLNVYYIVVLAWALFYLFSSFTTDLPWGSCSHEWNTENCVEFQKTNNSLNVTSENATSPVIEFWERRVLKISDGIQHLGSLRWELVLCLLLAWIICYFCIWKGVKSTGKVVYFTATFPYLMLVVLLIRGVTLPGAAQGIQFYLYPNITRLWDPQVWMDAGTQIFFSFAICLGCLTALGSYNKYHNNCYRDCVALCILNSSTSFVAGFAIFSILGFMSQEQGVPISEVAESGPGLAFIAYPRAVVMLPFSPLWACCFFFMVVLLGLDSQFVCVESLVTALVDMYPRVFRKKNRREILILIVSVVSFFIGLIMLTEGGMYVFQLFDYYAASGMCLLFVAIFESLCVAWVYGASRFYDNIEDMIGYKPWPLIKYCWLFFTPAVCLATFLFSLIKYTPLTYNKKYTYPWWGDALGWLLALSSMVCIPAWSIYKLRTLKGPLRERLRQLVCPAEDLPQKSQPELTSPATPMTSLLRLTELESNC
GABA transporter (Rattus norvegicus), sequence (P31647 whole entry, looked up, the tested form may be a part): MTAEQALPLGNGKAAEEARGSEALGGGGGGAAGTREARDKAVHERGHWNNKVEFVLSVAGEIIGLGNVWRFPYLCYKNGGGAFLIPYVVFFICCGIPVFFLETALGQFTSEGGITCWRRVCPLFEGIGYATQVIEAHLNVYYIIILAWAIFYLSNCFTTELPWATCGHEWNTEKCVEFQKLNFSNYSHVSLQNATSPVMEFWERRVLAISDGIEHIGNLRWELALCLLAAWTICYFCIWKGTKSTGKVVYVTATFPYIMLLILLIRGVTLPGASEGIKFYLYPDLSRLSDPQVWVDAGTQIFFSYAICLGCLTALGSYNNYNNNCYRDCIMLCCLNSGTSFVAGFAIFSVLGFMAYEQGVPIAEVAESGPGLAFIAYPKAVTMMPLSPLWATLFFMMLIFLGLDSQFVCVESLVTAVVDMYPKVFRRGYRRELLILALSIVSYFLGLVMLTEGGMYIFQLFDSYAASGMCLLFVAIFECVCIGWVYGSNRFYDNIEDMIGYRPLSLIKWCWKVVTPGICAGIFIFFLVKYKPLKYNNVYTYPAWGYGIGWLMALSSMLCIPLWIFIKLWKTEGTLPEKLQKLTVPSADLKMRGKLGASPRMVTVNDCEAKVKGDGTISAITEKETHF
GABA transporter (Rattus norvegicus), sequence (P48056 whole entry, looked up, the tested form may be a part): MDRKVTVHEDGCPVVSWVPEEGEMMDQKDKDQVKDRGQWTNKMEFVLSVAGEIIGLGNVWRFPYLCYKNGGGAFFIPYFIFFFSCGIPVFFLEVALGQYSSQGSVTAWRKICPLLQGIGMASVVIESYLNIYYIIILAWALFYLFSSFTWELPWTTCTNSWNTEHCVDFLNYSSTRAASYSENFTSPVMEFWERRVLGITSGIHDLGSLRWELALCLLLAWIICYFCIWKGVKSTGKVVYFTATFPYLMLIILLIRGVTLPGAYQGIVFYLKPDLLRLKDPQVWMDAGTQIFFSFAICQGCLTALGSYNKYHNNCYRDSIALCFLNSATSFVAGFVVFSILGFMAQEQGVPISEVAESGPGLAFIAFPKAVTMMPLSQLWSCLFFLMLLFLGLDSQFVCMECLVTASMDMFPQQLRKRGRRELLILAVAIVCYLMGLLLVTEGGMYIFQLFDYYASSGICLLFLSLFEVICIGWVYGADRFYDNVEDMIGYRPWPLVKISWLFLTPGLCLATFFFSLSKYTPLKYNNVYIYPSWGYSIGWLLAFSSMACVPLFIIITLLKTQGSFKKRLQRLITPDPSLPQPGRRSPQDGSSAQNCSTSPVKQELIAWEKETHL

**Q.** For Cn1nccc1[C@]1(CNC(=O)c2ccc(F)c(F)c2-c2ccc(C(F)(F)F)cc2)NC(=O)NC1=O, which inhibition [1] is on record?
**A.** Its inhibition is 7%.

**Q.** And the IC50 [2]?
**A.** Its IC50 is 32800 nM.

**Q.** What about the inhibition [3] of the same compound?
**A.** Its inhibition is -5%.

**Q.** And the inhibition [4]?
**A.** The inhibition was -5%.

**Q.** What about the inhibition [5] of the same compound?
**A.** The inhibition was -4%.

**Q.** What about the inhibition [6] of the same compound?
**A.** Its inhibition is -1%.

**Q.** What about the inhibition [7] of the same compound?
**A.** Its inhibition is 12%.

**Q.** And the IC50 [8]?
**A.** The IC50 was 30 nM (active).

**Q.** And the inhibition [9]?
**A.** Its inhibition is 0%.

**Q.** And the inhibition [10]?
**A.** Its inhibition is -1%.

**Q.** What about the IC50 [11] of the same compound?
**A.** Its IC50 is 6 nM (active).

**Q.** What about the IC50 [12] of the same compound?
**A.** Its IC50 is 2250 nM.

**Q.** And the inhibition [13]?
**A.** The inhibition was -8%.

**Q.** And the IC50 (Caspase-3)?
**A.** Its IC50 is > 100000 nM.

**Q.** And the inhibition at 10 µM [14]?
**A.** The inhibition at 10 µM was 10%.

**Q.** And the inhibition [15]?
**A.** The inhibition was 3%.

**Q.** What about the inhibition [16] of the same compound?
**A.** Its inhibition is 2%.

**Q.** What about the inhibition [17] of the same compound?
**A.** Its inhibition is -3%.

**Q.** What about the inhibition [18] of the same compound?
**A.** The inhibition was -9%.

— ChEMBL document CHEMBL5723583, “Data for DCP probe BAY-9835” (2024)
